This is an account of results in US10988445B2 (AstraZeneca AB, priority 2015, dated 2021).

The structures appear in SMILES notation.

This assay relates to human TH17 cells. Description: Inhibition of IL-17 release from human TH17 cells. It is filed as cell-based. As to conditions: Homo sapiens, 96 h, isolated human TH17 cells, 4 days culture, IL-17A by HTRF; read-out: pIC50 IL-17 release (converted). A digest of the protocol:
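TH17 cells (CD4+CXCR3-CCR6+) enriched from healthy-donor PBMC isolated from heparinized whole blood. Supernatants collected on day 4; IL-17A quantified by HTRF.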
(In general: TR-FRET usually uses a lanthanide donor and a delayed reading to cut background.)
`COCCS(=O)(=O)c1ccc2c(c1)CN(C(=O)C1(OC)CC1)C2C(=O)Nc1ccc(C(O)(C(F)(F)F)C(F)(F)F)cc1` (centres unmarked) [Example 703, N-[4-(1,1,1,3,3,3-hexafluoro-2-hydroxypropan-2-yl)phenyl]-2-[(1-methoxycyclopropyl)carbonyl]-5-[(2-methoxyethyl)sulfonyl]-2,3-dihydro-1H-isoindole-1-carboxamide]: the IC50 is 25.1 nM. In the case of `COCCS(=O)(=O)c1ccc2c(c1)CN(C(=O)OC)C2C(=O)Nc1ccc(C(O)(C(F)(F)F)C(F)(F)F)cc1` (centres unmarked) [Example 704, Methyl 1-{[4-(1,1,1,3,3,3-hexafluoro-2-hydroxypropan-2-yl)phenyl]carbamoyl}-5-[(2-methoxyethyl)sulfonyl]-1,3-dihydro-2H-isoindole-2-carboxylate], the IC50 was 25.1 nM. `COCCS(=O)(=O)c1ccc2c(c1)CN(C(=O)CO)C2C(=O)Nc1ccc(C(O)(C(F)(F)F)C(F)(F)F)cc1` (centres unmarked) [Example 705, N-[4-(1,1,1,3,3,3-Hexafluoro-2-hydroxypropan-2-yl)phenyl]-2-(hydroxyacetyl)-5-[(2-methoxyethyl)sulfonyl]-2,3-dihydro-1H-isoindole-1-carboxamide]: the IC50 was 100 nM. In the case of `COCCS(=O)(=O)c1ccc2c(c1)CN(C(=O)COC)C2C(=O)Nc1ccc(C(O)(C(F)(F)F)C(F)(F)F)cc1` (centres unmarked) [Example 706, N-[4-(1,1,1,3,3,3-Hexafluoro-2-hydroxypropan-2-yl)phenyl]-2-(methoxyacetyl)-5-[(2-methoxyethyl)sulfonyl]-2,3-dihydro-1H-isoindole-1-carboxamide], the IC50 was 50.1 nM. Consider `CNC(=O)N1Cc2cc(S(=O)(=O)CCOC)ccc2C1C(=O)Nc1ccc(C(O)(C(F)(F)F)C(F)(F)F)cc1` (centres unmarked) [Example 707], for which the IC50 was 50.1 nM. Then `COC1(C(=O)N2Cc3cc(S(=O)(=O)CCO)ccc3C2C(=O)Nc2ccc(C(O)(C(F)(F)F)C(F)(F)F)cc2)CC1` (centres unmarked) [Example 802, N-[4-(1,1,1,3,3,3-Hexafluoro-2-hydroxypropan-2-yl)phenyl]-5-[(2-hydroxyethyl)sulfonyl]-2-[(1-methoxycyclopropyl)carbonyl]-2,3-dihydro-1H-isoindole-1-carboxamide], with 79.4 nM. Regarding `COC(=O)N1Cc2cc(S(=O)(=O)CC3(C#N)CC3)ccc2C1C(=O)Nc1ccc(C(O)(C(F)(F)F)C(F)(F)F)cc1` (centres unmarked) [Example 902, Methyl 5-{[(1-cyanocyclopropyl)methyl]sulfonyl}-1-{[4-(1,1,1,3,3,3-hexafluoro-2-hydroxypropan-2-yl)phenyl]carbamoyl}-1,3-dihydro-2H-isoindole-2-carboxylate], the IC50 was 50.1 nM. For `CC(=O)N1Cc2cc(S(=O)(=O)CC(C)C)ccc2C1C(=O)Nc1ccc(C(O)(C(F)(F)F)C(F)(F)F)cc1` (centres unmarked) [Example 1001, 2-Acetyl-N-[4-(1,1,1,3,3,3-hexafluoro-2-hydroxypropan-2-yl)phenyl]-5-[(2-methylpropyl)sulfonyl]-2,3-dihydro-1H-isoindole-1-carboxamide] the value was 100 nM; for `O=C(Nc1ccc(C(O)(C(F)(F)F)C(F)(F)F)cc1)C1NCc2cc(S(=O)(=O)CC3(O)CC3)ccc21` (centres unmarked) [Example 1100, N-[4-(1,1,1,3,3,3-Hexafluoro-2-hydroxypropan-2-yl)phenyl]-5-{[(1-hydroxycyclopropyl)methyl]sulfonyl}-2,3-dihydro-1H-isoindole-1-carboxamide], 200 nM; for `CC(=O)N1Cc2cc(S(=O)(=O)CC3(O)CC3)ccc2C1C(=O)Nc1ccc(C(O)(C(F)(F)F)C(F)(F)F)cc1` (centres unmarked) [Example 1101, 2-Acetyl-N-[4-(1,1,1,3,3,3-hexafluoro-2-hydroxypropan-2-yl)phenyl]-5-{[(1-hydroxycyclopropyl)methyl]sulfonyl}-2,3-dihydro-1H-isoindole-1-carboxamide], 63.1 nM. In the case of `O=CN1Cc2cc(S(=O)(=O)CC3(O)CC3)ccc2C1C(=O)Nc1ccc(C(O)(C(F)(F)F)C(F)(F)F)cc1` (centres unmarked) [Example 1102, 2-Formyl-N-[4-(1,1,1,3,3,3-hexafluoro-2-hydroxypropan-2-yl)phenyl]-5-{[(1-hydroxycyclopropyl)methyl]sulfonyl}-2,3-dihydro-1H-isoindole-1-carboxamide], the IC50 is 31.6 nM. Take `O=C(Nc1ccc(C(O)(C(F)(F)F)C(F)(F)F)cc1)C1c2ccc(S(=O)(=O)CC3(O)CC3)cc2CN1C(=O)CO` (centres unmarked) [Example 1103, N-[4-(1,1,1,3,3,3-Hexafluoro-2-hydroxypropan-2-yl)phenyl]-2-(hydroxyacetyl)-5-{[(1-hydroxycyclopropyl)methyl]sulfonyl}-2,3-dihydro-1H-isoindole-1-carboxamide]: the IC50 was 501 nM. Then `CC(=O)N1Cc2cc(S(=O)(=O)CC(C)O)ccc2C1C(=O)Nc1ccc(C(O)(C(F)(F)F)C(F)(F)F)cc1` (centres unmarked) [Example 1200, 2-Acetyl-N-[4-(1,1,1,3,3,3-hexafluoro-2-hydroxypropan-2-yl)phenyl]-5-[(2-hydroxypropyl)sulfonyl]-2,3-dihydro-1H-isoindole-1-carboxamide], with 158 nM; and `O=C(Nc1ccc(C(O)(C(F)(F)F)C(F)(F)F)cc1)C1NCc2cc(S(=O)(=O)CC3(F)CC3)ccc21` (centres unmarked) [Example 1300, 5-{[(1-Fluorocyclopropyl)methyl]sulfonyl}-N-[4-(1,1,1,3,3,3-hexafluoro-2-hydroxypropan-2-yl)phenyl]-2,3-dihydro-1H-isoindole-1-carboxamide], with 251 nM.
